Reference: patent publication US20230009626A1 (ICHNOS SCIENCES S.A., priority 2018, published 2023)

Molecular target: HPK1 (MAP4K1) (Homo sapiens, UniProt Q92918)
Experiment: FRET Assay for HPK1 (MAP4K1): one step binding assay, displacement of labeled tracer
Details: for inhibition at 1 µM: 1 μM compound; for inhibition at 1 µM / inhibition at 10 µM: FRET ratio 665/620, percent of control; for inhibition at 10 µM: 10 μM compound; for IC50: dose response curve, nonlinear regression
How it was run: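 TR-FRET tracer-displacement binding assay. GST-tagged HPK1 (10 nM) and Eu-anti-GST antibody (4 nM) were pre-incubated with compound on ice for 15 min in 50 mM HEPES pH 7.5, 10 mM MgCl2, 1 mM EGTA, 0.01% Brij-35 (3% DMSO final). Kinase Tracer 222 (20 nM) was then added for 1 h at room temperature. IC50 came from nonlinear regression of percent of control; percent inhibition was also given at 1.0 and 10.0 μM.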

Sequence of HPK1 (MAP4K1) (Q92918 whole entry): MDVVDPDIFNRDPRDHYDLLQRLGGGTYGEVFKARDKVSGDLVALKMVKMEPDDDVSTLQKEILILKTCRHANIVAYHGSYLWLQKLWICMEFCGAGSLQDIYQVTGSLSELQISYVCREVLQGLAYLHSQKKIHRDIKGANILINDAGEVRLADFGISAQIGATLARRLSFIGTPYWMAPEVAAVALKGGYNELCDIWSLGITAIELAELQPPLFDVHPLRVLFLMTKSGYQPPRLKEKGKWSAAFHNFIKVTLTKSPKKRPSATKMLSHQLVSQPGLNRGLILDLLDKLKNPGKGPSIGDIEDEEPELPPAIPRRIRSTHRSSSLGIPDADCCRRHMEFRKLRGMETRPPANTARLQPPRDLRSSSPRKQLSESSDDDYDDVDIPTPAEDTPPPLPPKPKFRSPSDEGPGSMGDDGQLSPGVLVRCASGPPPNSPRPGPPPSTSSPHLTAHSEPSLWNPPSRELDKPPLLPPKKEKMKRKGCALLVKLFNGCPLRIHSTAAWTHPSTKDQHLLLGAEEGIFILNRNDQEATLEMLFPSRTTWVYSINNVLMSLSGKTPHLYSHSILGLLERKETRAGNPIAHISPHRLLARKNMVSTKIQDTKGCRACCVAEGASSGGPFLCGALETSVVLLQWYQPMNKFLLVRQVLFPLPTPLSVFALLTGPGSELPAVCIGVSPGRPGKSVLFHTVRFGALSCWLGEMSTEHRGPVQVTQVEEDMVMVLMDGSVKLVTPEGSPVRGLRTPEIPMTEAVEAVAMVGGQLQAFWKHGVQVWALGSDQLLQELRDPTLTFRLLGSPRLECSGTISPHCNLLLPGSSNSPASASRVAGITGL

Compound | inhibition at 1 µM | inhibition at 10 µM | IC50
COc1cccc(F)c1-c1cc2c(cn1)NC(=O)/C2=C(/C)Nc1ccc(N(C)C)nc1 [Example 117, (Z)-3-(1-((6-(Dimethylamino)pyridin-3-yl)amino)ethylidene)-5-(2-fluoro-6-methoxyphenyl)-1H-pyrrolo[2,3-c]pyridin-2(3H)-one] | 54.8% | 56.4% | –
CNC(=O)C(C)(C)n1ccc(N/C(C)=C2\C(=O)Nc3cnc(-c4cnccc4C)cc32)n1 [Example 118, (Z)-N,2-dimethyl-2-(3-((1-(5-(4-methylpyridin-3-yl)-2-oxo-1H-pyrrolo[2,3-c]pyridin-3(2H)-ylidene)ethyl)amino)-1H-pyrazol-1-yl)propanamide] | 78.4% | 83.3% | < 50 nM
C/C(Nc1c(C)nn(C)c1C)=C1/C(=O)Nc2cnc(-c3cnccc3C)cc21 [Example 119, (Z)-5-(4-Methylpyridin-3-yl)-3-(1-((1,3,5-trimethyl-1H-pyrazol-4-yl)amino)ethylidene)-1H-pyrrolo[2,3-c]pyridin-2(3H)-one] | 52.6% | 67% | > 500 nM
CC(=O)N1CC(n2ccc(N/C(C)=C3\C(=O)Nc4cnc(-c5cnccc5C)cc43)n2)C1 [Example 120, (Z)-3-(1-((1-(1-Acetylazetidin-3-yl)-1H-pyrazol-3-yl)amino)ethylidene)-5-(4-methylpyridin-3-yl)-1H-pyrrolo[2,3-c]pyridin-2(3H)-one] | 2.17% | 49% | –
C/C(Nc1ccn(C)n1)=C1/C(=O)Nc2cnc(-c3c(C)cccc3F)cc21 [Example 121, (Z)-5-(2-Fluoro-6-methylphenyl)-3-(1-((1-methyl-1H-pyrazol-3-yl)amino)ethylidene)-1H-pyrrolo[2,3-c]pyridin-2(3H)-one] | 78.9% | 85.7% | < 50 nM
C/C(Nc1cc[nH]n1)=C1/C(=O)Nc2cnc(-c3cnccc3C)cc21 [Example 122, (Z)-3-(1-((1H-Pyrazol-3-yl)amino)ethylidene)-5-(4-methylpyridin-3-yl)-1H-pyrrolo[2,3-c]pyridin-2(3H)-one] | 87.3% | 92.6% | < 50 nM
C/C(Nc1ccc(C)nc1)=C1/C(=O)Nc2cnc(-c3cnccc3C)cc21 [Example 123, (Z)-5-(4-Methylpyridin-3-yl)-3-(1-((6-methylpyridin-3-yl)amino)ethylidene)-1H-pyrrolo[2,3-c]pyridin-2(3H)-one] | 81.8% | 88.2% | < 50 nM
COc1cccc(F)c1-c1cc2c(cn1)NC(=O)/C2=C(/C)Nc1ccc(N2CCNCC2)cn1 [Example 124, (Z)-5-(2-Fluoro-6-methoxyphenyl)-3-(1-((5-(piperazin-1-yl)pyridin-2-yl)amino)ethylidene)-1H-pyrrolo[2,3-c]pyridin-2(3H)-one] | 79.6% | 89.7% | < 50 nM
COc1cccc(F)c1-c1cc2c(cn1)NC(=O)/C2=C(/C)Nc1ccc(N2CCNCC2)nc1 [Example 125, (Z)-5-(2-Fluoro-6-methoxyphenyl)-3-(1-((6-(piperazin-1-yl)pyridin-3-yl)amino)ethylidene)-1H-pyrrolo[2,3-c]pyridin-2(3H)-one] | 77.7% | 84.2% | < 50 nM
C/C(Nc1cc2n(n1)CC(=O)N(C)C2)=C1/C(=O)Nc2cnc(-c3cnccc3C)cc21 [Example 126, (Z)-5-Methyl-2-((1-(5-(4-methylpyridin-3-yl)-2-oxo-1H-pyrrolo[2,3-c]pyridin-3(2H)-ylidene)ethyl)amino)-4,5-dihydropyrazolo[1,5-a]pyrazin-6(7H)-one] | 82.4% | – | < 50 nM
C/C(Nc1cc2n(n1)CCN(C)C2=O)=C1/C(=O)Nc2cnc(-c3cnccc3C)cc21 [Example 127, (Z)-5-Methyl-2-((1-(5-(4-methylpyridin-3-yl)-2-oxo-1H-pyrrolo[2,3-c]pyridin-3(2H)-ylidene)ethyl)amino)-6,7-dihydropyrazolo[1,5-a]pyrazin-4(5H)-onc] | 75.1% | 81.5% | < 50 nM
C/C(Nc1ccn(CC(=O)N(C)C)n1)=C1/C(=O)Nc2cnc(-c3cnccc3C)cc21 [Example 128, (Z)-N,N-Dimethyl-2-(3-((1-(5-(4-methylpyridin-3-yl)-2-oxo-1H-pyrrolo[2,3-c]pyridin-3(2H)-ylidene)ethyl)amino)-1H-pyrazol-1-yl)acetamide] | 79.2% | 89.8% | < 50 nM
C/C(Nc1cc(C)n(C)n1)=C1/C(=O)Nc2cnc(-c3cnccc3C)cc21 [Example 129, (Z)-3-(1-((1,5-dimethyl-1H-pyrazol-3-yl)amino)ethylidene)-5-(4-methylpyridin-3-yl)-1H-pyrrolo[2,3-c]pyridin-2(3H)-one] | 76.4% | 82.2% | < 50 nM

The next lines start with the values.

inhibition at 1 µM | inhibition at 10 µM | IC50 | Compound
79.4% | 84.8% | < 50 nM | CC(=O)N1CCC(n2ccc(N/C(C)=C3\C(=O)Nc4cnc(-c5cnccc5C)cc43)n2)CC1 [Example 130, (Z)-3-(1-((1-(1-Acetylpiperidin-4-yl)-1H-pyrazol-3-yl)amino)ethylidene)-5-(4-methylpyridin-3-yl)-1H-pyrrolo[2,3-c]pyridin-2(3H)-one]
82.2% | 83.7% | < 50 nM | C/C(Nc1ccn(CC(=O)N2CCOCC2)n1)=C1/C(=O)Nc2cnc(-c3cnccc3C)cc21 [Example 131, (Z)-5-(4-Methylpyridin-3-yl)-3-(1-((1-(2-morpholino-2-oxoethyl)-1H-pyrazol-3-yl)amino)ethylidene)-1H-pyrrolo[2,3-c]pyridin-2(3H)-one]
81% | 80.9% | 100 to 500 nM | C/C(Nc1cc(C)nn1C)=C1/C(=O)Nc2cnc(-c3cnccc3C)cc21 [Example 132, (Z)-3-(1-((1,3-Dimethyl-1H-pyrazol-5-yl)amino)ethylidene)-5-(4-methylpyridin-3-yl)-1H-pyrrolo[2,3-c]pyridin-2(3H)-one]
79.9% | 88% | < 50 nM | C/C(Nc1ccn(C[C@H](C)O)n1)=C1/C(=O)Nc2cnc(-c3cnccc3C)cc21 [Example 133, (S,Z)-3-(1-((1-(2-Hydroxypropyl)-1H-pyrazol-3-yl)amino)ethylidene)-5-(4-methylpyridin-3-yl)-1H-pyrrolo[2,3-c]pyridin-2(3H)-one]
83.6% | 85.2% | < 50 nM | C/C(Nc1ccn([C@@H](C)CO)n1)=C1/C(=O)Nc2cnc(-c3cnccc3C)cc21 [Example 134, (S,Z)-3-(1-((1-(1-Hydroxypropan-2-yl)-1H-pyrazol-3-yl)amino)ethylidene)-5-(4-methylpyridin-3-yl)-1H-pyrrolo[2,3-c]pyridin-2(3H)-one]
78.5% | 83.9% | 50 to 100 nM | C/C(Nc1cn(C)nc1C)=C1/C(=O)Nc2cnc(-c3cnccc3C)cc21 [Example 135, (Z)-3-(1-((1,3-Dimethyl-1H-pyrazol-4-yl)amino)ethylidene)-5-(4-methylpyridin-3-yl)-1H-pyrrolo[2,3-c]pyridin-2(3H)-one]
